How the values were obtained:
[1] = test system: Activated human umbilical vein endothelial cells (HUVECs); test: Inhibition of proliferation of activated HUVEC cells; type: cell-based; details: concentration required to inhibit proliferation by 50%, value falls within the range of concentrations given or >1000 nM
tubulin = test: Tubulin polymerisation inhibitor (TPI) assay; type: biochemical; details: concentration required to inhibit the extent of tubulin polymerisation by 50%

Compound | IC50 [1] [µM] | IC50 (tubulin) [µM] | IC50 ([1]; Homo sapiens, HUVEC) [µM]
6-(3-amino-4-methoxyphenyl)-5-(3-hydroxy-4,5-dimethoxyphenyl)furo[2,3-d]pyrimidin-2(1H)-one hydrochloride [Example 10] | > 1 |  | 
COc1ccc(-c2oc3[nH]c(=O)ncc3c2-c2cc(OC)c(OC)c(OC)c2)cc1 [Example 1] |  | 2 | 0.01 to 0.1
COc1ccc(-c2c(-c3cc(OC)c(OC)c(OC)c3)oc3[nH]c(=O)ncc23)cc1 [Example 2, 6-(2-(3,4,5-trimethoxyphenyl))-5-(4-methoxyphenyl)furo[2,3-d]pyrimidin-2(1H)-one] |  | 4 to 10 | 0.1 to 1
COc1cc(-c2c(-c3ccco3)oc3[nH]c(=O)ncc23)cc(OC)c1OC [Example 3, 6-(2-furyl)-5-(3,4,5-trimethoxyphenyl)furo[2,3-d]pyrimidin-2(11)-one] |  |  | > 1
COc1cc(-c2c(-c3ccc4c(ccn4C)c3)oc3[nH]c(=O)ncc23)cc(OC)c1OC [Example 4, 6-(1-Methyl-1H-indol-5-yl)-5-(3,4,5-trimethoxy-phenyl)-1H-furo[2,3-d]pyrimidin-2-one] |  |  | 0.001 to 0.01
COc1ccc(-c2oc3[nH]c(=O)ncc3c2-c2cc(OC)c(OC)c(OC)c2)cn1 [Example 5, 6-(6-methoxypyridin-3-yl)-5-(3,4,5-trimethoxyphenyl)furo[2,3-d]pyrimidin-2(1H)-one] |  |  | 0.1 to 1
COc1ccc(-c2oc3[nH]c(=O)ncc3c2-c2cc(OC)c(OC)c(OC)c2)cc1O [Example 7, 6-(3-Hydroxy-4-methoxy-phenyl)-5-(3,4,5-trimethoxy-phenyl)-1H-furo[2,3-d]pyrimidinone] |  |  | 0.01 to 0.1
COc1ccc(-c2oc3[nH]c(=O)ncc3c2-c2cc(OC)c(OC)c(OC)c2)c(O)c1O [Example 8, 6-(2,3-Dihydroxy-4-methoxy-phenyl)-5-(3,4,5-trimethoxy-phenyl)-1H-furo[2,3-d]pyrimidin-2-one] |  |  | > 1
COc1ccc(-c2oc3[nH]c(=O)ncc3c2C(=O)c2cc(OC)c(OC)c(OC)c2)cc1 [Example 13] |  | > 40 | 
COc1ccc(-c2oc3c(cnc(=O)n3C)c2C(=O)c2cc(OC)c(OC)c(OC)c2)cc1 [Example 15] |  | > 40 | 
COc1ccc(-c2oc3nc(Cl)ncc3c2-c2cc(OC)c(OC)c(OC)c2)cc1 [Example 16, 2-Chloro-6-(4-methoxyphenyl)-5-(3,4,5-trimethoxy-phenyl)-furo[2,3-d]pyrimidine] |  | 10 to 40 | 
COc1ccc(-c2oc3nc(OC)ncc3c2-c2cc(OC)c(OC)c(OC)c2)cc1 [Example 17, 2-Methoxy-6-(4-methoxyphenyl)-5-(3,4,5-trimethoxyphenyl)-furo[2,3-d]pyrimidine] |  | > 40 | 
COc1ccc(-c2sc3nc(SC)ncc3c2C(=O)c2cc(OC)c(OC)c(OC)c2)cc1 [Example 18, 2-Thiomethoxy-6-(4-methoxyphenyl)-5-(3,4,5-trimethoxybenzoyl)-thiopheno [2,3-d]pyrimidine] |  | > 40 | 
COc1ccc(-c2sc3nc(OC)ncc3c2C(=O)c2cc(OC)c(OC)c(OC)c2)cc1 [Example 19, 2-Methoxy-6-(4-methoxyphenyl)-5-(3,4,5-trimethoxybenzoyl)-thiopheno[2,3-d]pyrimidine] |  | > 40 | > 1
COc1ccc(-c2oc3nc(OC)ccc3c2C(=O)c2cc(OC)c(OC)c(OC)c2)cc1 [Example 20, 6-methoxy-2-(4-methoxyphenyl)-3-(3,4,5-trimethoxybenzoyl)furo[2,3-b]pyridine] |  | ~2 | 0.1 to 1
COc1ccc(-c2oc3nc(OC)ccc3c2-c2cc(OC)c(OC)c(OC)c2)cc1 [Example 21, 6-methoxy-2-(4-methoxyphenyl)-3-(3,4,5-trimethoxyphenyl)furo[2,3-b]pyridine] |  | > 40 | 
COc1ccc(-c2oc3cc(OC)cnc3c2C(=O)c2cc(OC)c(OC)c(OC)c2)cc1 [Example 22, 6-methoxy-2-(4-methoxyphenyl)-3-(3,4,5-trimethoxybenzoyl)furo [3,2-b]pyridine] |  | < 4 | 0.1 to 1
COc1ccc(-c2oc3cc(OC)cnc3c2-c2cc(OC)c(OC)c(OC)c2)cc1 [Example 23, 6-methoxy-2-(4-methoxyphenyl)-3-(3,4,5-trimethoxyphenyl)furo[3,2-b]pyridine] |  | ~10 | > 1
COc1ccc(-c2oc3cc(OC)ncc3c2C(=O)c2cc(OC)c(OC)c(OC)c2)cc1 [Example 24, 6-methoxy-2-(4-methoxyphenyl)-3-(3,4,5-trimethoxybenzoyl)furo[3,2-c]pyridine] |  | < 4 | 0.1 to 1
COc1ccc(-c2oc3nc(OC)cnc3c2C(=O)c2cc(OC)c(OC)c(OC)c2)cc1 [Example 25, 3-methoxy-6-(4-methoxyphenyl)-7-(3,4,5-trimethoxybenzoyl)furo[2,3-b]pyrazine] |  | < 4 | 0.01 to 0.1
COc1ccc(-c2oc3[nH]c(=O)ccc3c2-c2cc(OC)c(OC)c(OC)c2)cc1 [Example 26, 2-(4-Methoxyphenyl)-3-(3,4,5-trimethoxyphenyl)furo[2,3-b]pyridin-6-one] |  |  | 0.1 to 1
COc1ccc(-c2oc3nc(OC)ncc3c2C(=O)c2cc(OC)c(OC)c(OC)c2)cc1 [Example 27] |  |  | 0.1 to 1
COc1ccc(-c2oc3c(Br)c(OC)cnc3c2C(=O)c2cc(OC)c(OC)c(OC)c2)cc1 [Example 28, 7-Bromo-6-methoxy-2-(4-methoxyphenyl)-3-(3,4,5-trimethoxybenzoyl)-furo[3,2-b]pyridine] |  |  | 0.1 to 1
COc1cc(C(=O)c2c(-c3cnn(C)c3)oc3c(=O)c(OC)c[nH]c23)cc(OC)c1OC [Example 30, 6-Methoxy-2-(1-methyl-1H-pyrazol-4-yl)-3-(3,4,5-trimethoxybenzoyl)-4H-furo[3,2-b]pyridin-7-one] |  |  | > 1
